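Results reflect a 48-hour exposure of cells in 96-well plates to compound at five concentrations. At the GI50, growth is halved.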 Activity calls are given as the source filed them. Rule as the data show it: active = GI50 up to about 1.1 µM and inactive = higher. Where a SMILES comes first, the peptide text is derived from it. [ ]: non-standard residue; d: D form. The star is where a group is joined. ξ: configuration not given here. NMeF = CN[CH](Cc1ccccc1)C(=O)O; ξNMe2Val = CC(C)C(C(=O)*)N(C)C; NMeV = CN[CH](C(=O)O)C(C)C; OtBu = CC(C)(C)O*
How the values were obtained:
Test in all cases: growth of human tumour cells (NCI), 48 h
DLD-1 = system: DLD-1
DMS-114 = system: DMS-114
DMS-273 = system: DMS-273
RXF 631 = system: RXF 631
SNB-78 = system: SNB-78
KM-20L2 = system: KM-20L2
LXFL 529 = system: LXFL 529
M19-MEL = system: M19-MEL
HOP-18 = system: HOP-18

Structure (SMILES)	GI50 (DLD-1)	GI50 (DMS-114)	GI50 (DMS-273)	GI50 (RXF 631)	GI50 (SNB-78)	GI50 (KM-20L2)	GI50 (LXFL 529)	GI50 (M19-MEL)	GI50 (HOP-18)
CC[C@H]1CNC(=O)CC1CC(=O)OC (some centres not stated)	> 100 µM (inactive)	> 100 µM (inactive)	> 100 µM (inactive)	> 100 µM (inactive)	> 100 µM (inactive)				
CCCCCCCCCCC(O)[C@H]1CCC(C2CC[C@H]([C@H](O)CCCCCCCCCCC(O)CC3=CC(C)OC3=O)O2)O1 (some centres not stated)	3.67 µM (inactive)	< 0.01 µM (active)	1.6 µM (inactive)	2.01 µM (inactive)	2.32 µM (inactive)	3.33 µM (inactive)	2.54 µM (inactive)	2.22 µM (inactive)	
Cc1ccc(S(=O)(=O)N2CCCCC2CCO)cc1 (configuration not stated)	> 100 µM (inactive)	> 100 µM (inactive)	> 100 µM (inactive)		> 100 µM (inactive)	> 100 µM (inactive)	> 100 µM (inactive)	> 100 µM (inactive)	> 100 µM (inactive)
CCn1c(=O)c2ccccc2n2c(=O)c3cc4ccccc4cc3nc12	> 100 µM (inactive)	> 100 µM (inactive)	> 100 µM (inactive)		39.8 µM (inactive)	> 100 µM (inactive)	> 100 µM (inactive)	> 100 µM (inactive)	
CCC(Oc1ccc(OC)c2c1C(=O)CCC2)C(=O)O (configuration not stated)	> 100 µM (inactive)	> 100 µM (inactive)	> 100 µM (inactive)		> 100 µM (inactive)		> 100 µM (inactive)	> 100 µM (inactive)	
CC[C@]12C=CCN3CCC4(c5cc([C@@]6(C(=O)OC)CC7CN(CCc8c6[nH]c6ccccc86)C[C@@H]6CCC[C@H]76)c(OC)cc5N(C)C4[C@](O)(C(=O)OC)C1OC(C)=O)C32 (some centres not stated)	0.494 µM (active)	0.225 µM (active)			0.237 µM (active)	0.126 µM (active)	0.257 µM (active)	0.267 µM (active)	
NCCCSCC(=O)O		> 100 µM (inactive)	> 100 µM (inactive)		> 100 µM (inactive)	> 100 µM (inactive)	> 100 µM (inactive)	> 100 µM (inactive)	
O=S1(=O)COc2ccccc2-c2ncncc21	> 100 µM (inactive)	> 100 µM (inactive)		> 100 µM (inactive)	> 100 µM (inactive)	> 100 µM (inactive)	> 100 µM (inactive)	> 100 µM (inactive)	> 100 µM (inactive)
CCOC(=O)C1(C(=O)OCC)CC=C(C)CC12C(=O)Nc1ccccc12 (configuration not stated)	> 100 µM (inactive)	> 100 µM (inactive)	> 100 µM (inactive)			> 100 µM (inactive)	> 100 µM (inactive)	> 100 µM (inactive)	> 100 µM (inactive)
CC1=CC2CCC1(C)C/C2=C(/C)OC=O (configuration not stated)	> 100 µM (inactive)	> 100 µM (inactive)	> 100 µM (inactive)		> 100 µM (inactive)	> 100 µM (inactive)	> 100 µM (inactive)	> 100 µM (inactive)	> 100 µM (inactive)
C[C@]12CC(C=O)C(=O)C(O)=C1CC[C@@H]1C2CC[C@@]2(C)C1CC[C@]2(C)O (some centres not stated)	8.55 µM (inactive)	16.5 µM (inactive)	21.6 µM (inactive)	25.6 µM (inactive)	16.5 µM (inactive)	22 µM (inactive)	16.6 µM (inactive)	20.1 µM (inactive)	
Cc1nc(N)nc(CCC(=O)Nc2cccc(C(F)(F)F)c2)c1-c1ccc(Cl)cc1	> 100 µM (inactive)	> 100 µM (inactive)	> 100 µM (inactive)	> 100 µM (inactive)	> 100 µM (inactive)	> 100 µM (inactive)	> 100 µM (inactive)	> 100 µM (inactive)	> 100 µM (inactive)
O=c1cc(-c2ccccc2)oc2cc(OCCCCCCCCCCOc3ccc4c(=O)cc(-c5ccccc5)oc4c3)ccc12		> 100 µM (inactive)	> 100 µM (inactive)	> 100 µM (inactive)	> 100 µM (inactive)	> 100 µM (inactive)	> 100 µM (inactive)	> 100 µM (inactive)	> 100 µM (inactive)
C/C(=C1/CCC/C(=C(/C)c2ccccc2)C1=O)c1ccccc1	43.4 µM (inactive)	21.7 µM (inactive)	32 µM (inactive)		36.5 µM (inactive)	40.5 µM (inactive)	43.1 µM (inactive)	24.9 µM (inactive)	> 100 µM (inactive)
COc1ccc(/C(Cl)=C(\c2ccc(OCCN(C)C)cc2)c2ccc(OC(=O)C(C)(C)C)cc2)cc1	13.6 µM (inactive)	12.2 µM (inactive)	5.07 µM (inactive)		16.1 µM (inactive)	3.41 µM (inactive)	14 µM (inactive)	13.7 µM (inactive)	
NC(=O)N/N=C(\CC1OC(=O)c2ccccc21)c1ccc([N+](=O)[O-])cc1 (configuration not stated)	22.4 µM (inactive)		28.1 µM (inactive)			29.2 µM (inactive)	27.9 µM (inactive)	26.5 µM (inactive)	
CC(C)N1CCC2(CC1)NNc1ncccc1-n1cccc12	> 100 µM (inactive)	> 100 µM (inactive)	> 100 µM (inactive)		> 100 µM (inactive)			> 100 µM (inactive)	> 100 µM (inactive)
COC(=O)C12C3C4C1C1C2C3C41I (configuration not stated)	> 100 µM (inactive)	> 100 µM (inactive)		> 100 µM (inactive)	> 100 µM (inactive)	> 100 µM (inactive)	> 100 µM (inactive)	> 100 µM (inactive)	> 100 µM (inactive)
Oc1nnc(CNc2ccc(Cl)cc2Cl)c2ccccc12	21.2 µM (inactive)	13.9 µM (inactive)	19.5 µM (inactive)	> 100 µM (inactive)	62.7 µM (inactive)	25.6 µM (inactive)	17.1 µM (inactive)	33 µM (inactive)	23.1 µM (inactive)
CN(C)/C=N\c1ccn(CCO)c(=O)n1	> 100 µM (inactive)	> 100 µM (inactive)	> 100 µM (inactive)	> 100 µM (inactive)	> 100 µM (inactive)	> 100 µM (inactive)	> 100 µM (inactive)	> 100 µM (inactive)	> 100 µM (inactive)
COc1cc2cnc3c4ccccc4ccc3c2cc1OC	> 100 µM (inactive)	> 100 µM (inactive)			> 100 µM (inactive)	> 100 µM (inactive)	> 100 µM (inactive)	> 100 µM (inactive)	
CC(C)C(C(=O)N(C)C(Cc1ccccc1)C(=O)N(C)C(C(=O)N(C)C(C(=O)N1CCCC1C(=O)OC(C)(C)C)C(C)C)C(C)C)N(C)C (configuration not stated) (ξNMe2Val-[NMeF][NMeV][NMeV]P-OtBu; configuration not given here)		31.7 µM (inactive)	21 µM (inactive)			20.8 µM (inactive)	31.8 µM (inactive)	78.3 µM (inactive)	
